# Assay results published in patent US20050101640A1 (Recordati Ireland Limited, priority 2002, published 2005).
# Marks after values point to notes of the source that are not given here.
# How the values were obtained:
# [1] = system: uninephrectomized anesthetized rats, renal ischemia/reperfusion hypertension; experiment: Model of acute angiotensin-mediated renal hypertension in anesthetized rats (Example I); settings: for DBP mean change ± S.D: DBP decrease after 10 minutes from the start of drug administration, lercanidipine 10 μg/kg, lisinopril 30 μg/kg i.v. or both, Anova factorial model; for effect on systolic blood pressure and diastolic blood pressure compared to vehicle (and, for the combination, to either drug alone): lercanidipine 10 μg/kg i.v. or both; for DBP / HR / SBP: mean ± S.E.M.
# Description: Male Sprague-Dawley rats, weighing 250-300 g, were anaesthetized with pentobarbital sodium (35 mg/kg, i.p.) and placed on a thermic blanket. The temperature was maintained at 37° C. with a thermoregulator via a rectal probe. The animals were tracheotomized to facilitate spontaneous breathing. A polyethylene catheter was placed in the left jugular vein to allow for infusion of pentobarbital sodium to maintain anesthesia. The left femoral vein and artery were cannulated with polyethylene catheters to allow drugs administration and to monitor blood pressure, respectively.
# The animals then underwent a left nephrectomy by excising the left kidney via a flank incision. The right kidney and renal vein, artery and ureter then were exposed via a right retroperitoneal incision, under a dissecting microscope. Silk threads were positioned loosely around both vessels and ureter. The cavity was then covered with Vaseline oil.
# After 30-60 minutes of basal recordings of arterial blood pressure and heart rate the threads around the renal vessels and ureter were tied close to the renal hilum to induce complete renal ischemia of the right kidney. After 2 hours of ischemia (designated as “120” in Tables 4-7), the threads were removed to allow renal reperfusion and urine output. […] To evaluate the effects of drugs administration on blood pressure and heart rate, two-way ANOVA and Dunnet's test was used.
# [2] = cited from earlier work
# isolated rat aorta = settings: in vitro; even after the drug has been removed for 6 hours; cited from earlier work
# [3] = system: uninephrectomized anesthetized rats, renal ischemia/reperfusion hypertension; experiment: Model of acute angiotensin-mediated renal hypertension in anesthetized rats (Example VI, with HCTZ); type: in vivo, Sprague-Dawley rats; settings: for DBP / HR / SBP: mean ± S.E.M.
# Source text: The animals were tracheotomized to facilitate spontaneous breathing.
# Silk threads were placed around both vessels and ureter. The cavity was then covered with Vaseline oil.
# Results are expressed as mean values ±S.E in the tables and as mean values ±S.E. and Δ±S.E. changes in the figures.
# [4] = time 0 min, basal, before ischemia and before drug
# [5] = time 120 min, end of ischemia, before drug
# [6] = time 125 min, 5 min after reperfusion, at drug administration (reference value)
# [7] = time 130 min (5 min after i.v. drug), lisinopril 30 μg/kg, lercanidipine 10 μg/kg or both
# [8] = time 135 min (10 min after i.v. drug), lisinopril 30 μg/kg, lercanidipine 10 μg/kg or both
# [9] = time 150 min (25 min after i.v. drug), lisinopril 30 μg/kg, lercanidipine 10 μg/kg or both
# [10] = time 165 min (40 min after i.v. drug), lisinopril 30 μg/kg, lercanidipine 10 μg/kg or both
# [11] = time 180 min (55 min after i.v. drug), lisinopril 30 μg/kg, lercanidipine 10 μg/kg or both
# [12] = time 130 min (5 min after i.v. drug), lisinopril+HCTZ 10+12 μg/kg, lercanidipine 7.5 μg/kg or all three
# [13] = time 135 min (10 min after i.v. drug), lisinopril+HCTZ 10+12 μg/kg, lercanidipine 7.5 μg/kg or all three
# [14] = time 150 min (25 min after i.v. drug), lisinopril+HCTZ 10+12 μg/kg, lercanidipine 7.5 μg/kg or all three
# [15] = time 165 min (40 min after i.v. drug), lisinopril+HCTZ 10+12 μg/kg, lercanidipine 7.5 μg/kg or all three
# [16] = time 180 min (55 min after i.v. drug), lisinopril+HCTZ 10+12 μg/kg, lercanidipine 7.5 μg/kg or all three
compound,measurement,setting,value
NCCCC[C@H](N[C@@H](CCc1ccccc1)C(=O)O)C(=O)N1CCC[C@H]1C(=O)O [lisinopril],DBP mean change ± S.D,[1],26.83 ± 4.40^a
same,"effect on systolic blood pressure and diastolic blood pressure compared to vehicle (and, for the combination, to either drug alone)",[1]; lisinopril 30 μg/kg,significant decreases
same,DBP,[1]; [4],73.3 ± 3.2 mmHg
same,HR,[1]; [4],393.3 ± 8.8 beats/min
same,SBP,[1]; [4],104.2 ± 3.0 mmHg
same,DBP,[1]; [5],68.3 ± 2.3 mmHg
same,HR,[1]; [5],390.3 ± 10.0 beats/min
same,SBP,[1]; [5],99.3 ± 2.4 mmHg
same,DBP,[1]; [6],117.3 ± 1.3 mmHg
same,SBP,[1]; [6],154.3 ± 3.6 mmHg
same,DBP,[1]; [7],92.5 ± 1.0^b mmHg
same,HR,[1]; [7],408.3 ± 12.3 beats/min
same,SBP,[1]; [7],120.7 ± 1.7^b mmHg
same,DBP,[1]; [8],90.5 ± 1.2^b mmHg
same,HR,[1]; [8],405.8 ± 9.7 beats/min
same,SBP,[1]; [8],119.0 ± 2.1^b mmHg
same,DBP,[1]; [9],77.7 ± 4.1^b mmHg
same,HR,[1]; [9],406.7 ± 13.1 beats/min
same,SBP,[1]; [9],111.0 ± 4.0^b mmHg
same,DBP,[1]; [10],64.0 ± 4.8^b mmHg
same,HR,[1]; [10],406.7 ± 18.2 beats/min
same,SBP,[1]; [10],96.0 ± 6.0^b mmHg
same,DBP,[1]; [11],57.3 ± 5.1^b mmHg
same,HR,[1]; [11],400.0 ± 14.6 beats/min
same,SBP,[1]; [11],90.2 ± 6.8^b mmHg
same,time of peak serum concentrations,[2]; following oral administration,≤ 7 h
"COC(=O)C1=C(C)NC(C)=C(C(=O)OC(C)(C)CN(C)CCC(c2ccccc2)c2ccccc2)C1c1cccc([N+](=O)[O-])c1 (centres unmarked) [lercanidipine, methyl 1,1,N-trimethyl-N-(3,3-diphenylpropyl)-2-aminoethyl 1,4-dihydro-2,6-dimethyl-4-(3-nitrophenyl)pyridine-3,5-dicarboxylate]",DBP mean change ± S.D,[1],26.13 ± 8.68^a
same,"effect on systolic blood pressure and diastolic blood pressure compared to vehicle (and, for the combination, to either drug alone)",[1]; lisinopril 30 μg/kg,significant decreases
same,DBP,[1]; [4],69.8 ± 2.5 mmHg
same,HR,[1]; [4],359.6 ± 13.9 beats/min
same,SBP,[1]; [4],110.4 ± 3.6 mmHg
same,DBP,[1]; [5],70.6 ± 5.4 mmHg
same,HR,[1]; [5],359.3 ± 7.8 beats/min
same,SBP,[1]; [5],114.5 ± 6.5 mmHg
same,DBP,[1]; [6],119.3 ± 5.2 mmHg
same,HR,[1]; [6],383.6 ± 9.9 beats/min
same,SBP,[1]; [6],167.6 ± 8.9 mmHg
same,DBP,[1]; [7],97.1 ± 3.1^b mmHg
same,HR,[1]; [7],433.1 ± 8.9^b beats/min
same,SBP,[1]; [7],140.4 ± 3.8^b mmHg
same,DBP,[1]; [8],93.1 ± 4.0^b mmHg
same,HR,[1]; [8],448.0 ± 6.2^b beats/min
same,SBP,[1]; [8],140.5 ± 3.7^b mmHg
same,DBP,[1]; [9],89.5 ± 4.3^b mmHg
same,HR,[1]; [9],443.6 ± 8.2^b beats/min
same,SBP,[1]; [9],139.4 ± 3.7^b mmHg
same,DBP,[1]; [10],83.5 ± 4.6^b mmHg
same,HR,[1]; [10],435.5 ± 11.2^b beats/min
same,SBP,[1]; [10],132.0 ± 5.3^b mmHg
same,DBP,[1]; [11],78.8 ± 4.0^b mmHg
same,HR,[1]; [11],422.8 ± 12.0^b beats/min
same,SBP,[1]; [11],128.1 ± 4.7^b mmHg
same,isolated rat aorta response to high K+,isolated rat aorta,attenuated
same,effect on blood pressure (in words),"[3]; i.v. at peak of reperfusion hypertension, lisinopril+HCTZ 10+12 μg/kg, lercanidipine 7.5 μg/kg or all three",statistically significant decrease in diastolic blood pressure
same,effect on heart rate (in words),"[3]; lisinopril+HCTZ 10+12 μg/kg, lercanidipine 7.5 μg/kg i.v. or all three",positive chronotropic effect
same,DBP,[3]; [4],82.7 ± 2.7 mmHg
same,HR,[3]; [4],380.0 ± 17.2 beats/min
same,SBP,[3]; [4],115.0 ± 3.1 mmHg
same,DBP,[3]; [5],65.8 ± 4.6 mmHg
same,HR,[3]; [5],376.0 ± 17.0 beats/min
same,SBP,[3]; [5],103.8 ± 6.4 mmHg
same,DBP,[3]; [6],107.0 ± 4.0 mmHg
same,SBP,[3]; [6],138.0 ± 4.6 mmHg
same,DBP,[3]; [12],87.0 ± 4.3 b mmHg
same,HR,[3]; [12],434.0 ± 26.9 b beats/min
same,SBP,[3]; [12],123.7 ± 3.2 mmHg
same,DBP,[3]; [13],86.7 ± 5.0 b mmHg
same,HR,[3]; [13],448.0 ± 14.4 b beats/min
same,SBP,[3]; [13],121.7 ± 4.9 mmHg
same,DBP,[3]; [14],86.0 ± 8.2 b mmHg
same,HR,[3]; [14],444.0 ± 16.1 b beats/min
same,SBP,[3]; [14],121.0 ± 7.0 mmHg
same,DBP,[3]; [15],78.0 ± 7.6 b mmHg
same,HR,[3]; [15],442.0 ± 20.4 b beats/min
same,SBP,[3]; [15],112.3 ± 6.1 b mmHg
same,DBP,[3]; [16],66.3 ± 8.0 b mmHg
same,HR,[3]; [16],434.0 ± 20.9 b beats/min
same,SBP,[3]; [16],99.8 ± 7.2 b mmHg
same,elimination route,[2]; in vivo,essentially via the hepatic route
same,time of peak plasma levels following dosing,[2]; unmodified release oral dosage form,2 to 3 h
